Experimental data taken from patent publication US10752596B2, “Nitrogen-containing heteroaryl compound and pharmaceutical use thereof” (JAPAN TOBACCO INC., priority 2017, dated 2020).

Target: human GLUT9 (Homo sapiens (Human), UniProt Q9NRM0)
Experiment: Evaluation of human GLUT9 inhibitory activity ([14C] uric acid uptake in human GLUT9 expressing HEK293T cells transduced with Uricase/Hyper)
Assay type: cell-based
Conditions: human GLUT9 stably expressing HEK293T cells; for IC50: final 300 μM uric acid, 6 min, read-out: humans GLUT9 inhibitory activity (IC50 value (μM)); for inhibition at 10 µM: HEK-293T, 10 μM compound, read-out: GLUT9 inhibitory rate at 10 μM of compound
Method: A method for measuring GLUT9 inhibitory activity using human GLUT9 expressing cells transduced with Uricase/Hyper is shown hereinafter. GLUT9 inhibitory activity ([…]) of the test compound was calculated based on the intracellular uptake amount of labeled uric acid ([^14C] uric acid) transported by GLUT9.
1. Preparation of Human GLUT9 Expression Plasmid
Human GLUT9S coding region (NM_001001290.1) was amplified by PCR method using PrimeSTAR MAX DNA Polymerase (Takara Bio). The obtained PCR product was subjected to agarose gel electrophoresis, and the desired size of PCR product was purified by QIAquick Gel Extraction Kit (QIAGEN). Next, pEBMulti-Bsd vector (Wako Pure Chemical Industries, Ltd.) was subjected to digestion using restriction enzymes SalI and EcoR V, and linked to the PCR product containing GLUT9S by In-Fusion reaction using In-Fusion HD Cloning Kit (Takara Bio). XL10-Gold Competent Cells (Agilent Technologies) were transformed in In-Fusion reaction solution, and the obtained transfectants were cultured with shaking overnight in LB medium to which Blasticidin S HCl (Thermo Fisher Scientific) was added. Human GLUT9 expression plasmid DNA was prepared from the collected transfectants using EndoFree Plasmid Kit (Takara Bio).
2. Establish of Human GLUT9 Stably Expressing Cell
HEK293T cells (American Type Culture Collection, DS Pharma Biomedical) were seeded in a 6 well plate at 1×10^6 cells/well. Next day, human GLUT9 expression plasmid was transfected by using Lipofectamine 3000 Reagent (Thermo Fisher Scientific) as follows. Lipofectamine 3000 Reagent (5 μL) was diluted with Opti-MEM (125 μL, Thermo Fisher Scientific). Separately, plasmid DNA (2.5 μg) was diluted with Opti-MEM (125 μL), and P3000 Reagent (5 μL) was added thereto. The obtained solution was mixed with the previously obtained diluted solution, and the mixture was left stand at room temperature for 5 min, and added to the cells. Next day, the transfected cells were diluted and reseeded in a 6 well plate at 4×10^5 cells/well, and drug selection was performed in the presence of 30 μg/mL of Blasticidin S HCl, and thereby, Blasticidin-resistant human GLUT9 stably expressing cell line was established. Mock cells were prepared by introducing pEBMulti-Bsd vector into HEK293T cells in a similar manner.
3. Preparation of Uricase/Hyper Expression Plasmid
Uricase/Hyper expression plasmid was prepared by linking the coding regions of Aspergillus Flavus-derived uricase gene and pHyPer-Cyto vector (Evrogen) HyPer gene to the pEBMulti-Hyg vector (Wako Pure Chemical Industries, Ltd.) and then introducing it. The preparation method was performed by reference to Gout and Nucleic Acid Metabolism 2013, 37(2), 93-101, and seven repeated linker sequence of glycine-glycine-glycine-serine was prepared herein.
4. Preparation of Human GLUT9-Uricase/Hyper Coexpressing Cell
Human GLUT9 stably expressing cells were seeded at 3.6×10^7 cells per 225 cm^2 flask. Next day, Uricase/Hyper expression plasmid was transfected by using Lipofectamine 3000 Reagent as follows. Lipofectamine 3000 Reagent (40 μL) was diluted with Opti-MEM (750 μL). Separately, plasmid DNA (20 μg) was diluted with Opti-MEM (750 μL), and P3000 Reagent (40 μL) was added thereto. The obtained solution was mixed with the previously obtained diluted solution, and the mixture was left stand at room temperature for 5 min, and added to the cells. Next day, transfected cells were collected to prepare human GLUT9-Uricase/Hyper coexpressing cells.
5. Evaluation of GLUT9 Inhibitory Activity
Uricase/Hyper transiently-transfected human GLUT9 stably expressing cells or mock cells (blank) were seeded in a 96 well plate (Corning) at 1.6×10^5 cells/well, and cultured overnight at 37° C., 5% CO2. D-MEM/high glucose (Wako Pure Chemical Industries, Ltd.) containing 10% Fetal Bovine Serum (Lifetechnology) and 100 units/ml penicillin/100 μg/ml streptomycin (GIBCO) was used as a medium.

human GLUT9, sequence (Q9NRM0 other isoform, or with tags, fused parts or gaps): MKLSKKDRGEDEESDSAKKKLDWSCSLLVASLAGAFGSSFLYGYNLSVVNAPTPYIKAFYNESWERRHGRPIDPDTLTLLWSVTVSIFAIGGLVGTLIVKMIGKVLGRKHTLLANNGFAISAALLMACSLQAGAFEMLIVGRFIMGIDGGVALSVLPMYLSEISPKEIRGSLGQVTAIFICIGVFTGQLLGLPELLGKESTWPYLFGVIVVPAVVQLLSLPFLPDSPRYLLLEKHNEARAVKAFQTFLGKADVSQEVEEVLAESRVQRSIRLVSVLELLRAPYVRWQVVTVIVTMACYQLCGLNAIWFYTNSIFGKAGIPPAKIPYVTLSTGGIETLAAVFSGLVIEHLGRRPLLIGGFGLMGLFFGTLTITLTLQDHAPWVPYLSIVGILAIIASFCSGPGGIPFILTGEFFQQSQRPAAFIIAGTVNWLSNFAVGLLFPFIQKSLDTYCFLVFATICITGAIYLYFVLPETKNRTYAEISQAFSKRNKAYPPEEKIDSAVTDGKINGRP

IC50 [µM] | inhibition at 10 µM [%] | SMILES
0.0497 |  | COCCCc1cnc(-c2cc(F)c(OC)c(F)c2)c(-c2ccc(C(=O)O)c(C)c2)c1 [Example 115]
 | 9 | CCCCc1cnc(-c2ccc(C(=O)N(C)C)cc2)c(-c2ccc(C(=O)O)cc2)n1 [Example 22]
3.07 |  | CCCCc1cnc(-c2ccc(OC)c(C(F)(F)F)c2)c(-c2ccc(C(=O)O)cc2)n1 [Example 19]
0.0844 |  | CCCCc1cnc(-c2ccc(OC(F)(F)F)cc2)c(-c2ccc(C(=O)O)cc2)n1 [Example 75]
0.0585 |  | CCOCCCc1cnc(-c2ccc(OC)cc2)c(-c2ccc(C(=O)O)cc2)c1 [Example 77]
5.06 |  | COc1ccc(-c2ncc3c(c2-c2ccc(C(=O)O)cc2)CCCC3)cc1 [Example 12]
0.0626 |  | CCCCc1cnc(-c2ccc(OC)cc2)c(-c2ccc(C(=O)O)cc2F)n1 [Example 5]
6.5 |  | COc1ccc(-c2ncc(CCC3CCCCC3)cc2-c2ccc(C(=O)O)cc2)cc1 [Example 42]
7.12 |  | CCCCc1cnc(-c2ccc(OC)cc2)c(-c2ccc(C(C)(C)C(=O)O)cc2)n1 [Example 48]
0.0888 |  | CCCCc1cnc(-c2ccc3c(c2)CCO3)c(-c2ccc(C(=O)O)cc2)n1 [Example 32]
0.561 |  | COCCCc1cnc(-c2cc(F)c(OC)c(F)c2)c(-c2ccc(C(=O)O)c(F)c2)n1 [Example 112]
0.525 |  | CCOCCc1cnc(-c2cc(F)c(OC)c(F)c2)c(-c2ccc(CCC(=O)O)cc2)n1 [Example 134]
1 |  | COCCCc1cnc(-c2ccc(OC)c(F)c2)c(-c2ccc(C(=O)O)c(F)c2)n1 [Example 113]
0.928 |  | CCCCc1cnc(-c2ccc(C(C)C)cc2)c(-c2ccc(C(=O)O)cc2)n1 [Example 88]
0.117 |  | COCCCc1cnc(-c2ccc(OC)cc2)c(-c2ccc(C(=O)O)cc2)c1 [Example 84, 4-(2-(4-methoxyphenyl)-5-(3-methoxypropyl)pyridin-3-yl)benzoic Acid]
0.077 |  | CCCc1cnc(-c2cc(F)c(OC)c(F)c2)c(-c2ccc(C(=O)O)cc2)n1 [Example 66]
0.119 |  | COc1ccc(-c2ncc(CCC3CC3)cc2-c2ccc(C(=O)O)cc2)cc1 [Example 52]
0.226 |  | CCOCCc1cnc(-c2cc(F)c(OC)c(F)c2)c(-c2ccc(C(=O)O)c(Cl)c2)c1 [Example 142]
0.0942 |  | CCCCc1cnc(-c2ccc(OC)cc2)c(-c2ccc(C(=O)O)cc2)c1 [Example 18]
0.0917 |  | CCOCCc1cnc(-c2ccc(OC)cc2)c(-c2ccc(C(=O)O)c(C)c2)c1 [Example 137]

IC50 [µM] | inhibition at 10 µM [%] | SMILES
0.125 |  | CCCOCc1cnc(-c2ccc(OC)cc2)c(-c2ccc(C(=O)O)c(C)c2)c1 [Example 143]
0.0662 |  | CCCCc1cnc(-c2ccc(OC)cc2)c(-c2ccc(C(=O)O)c(C)c2)n1 [Example 83]
0.962 |  | COc1ccc(-c2ncc(CCCCO)cc2-c2ccc(C(=O)O)cc2)cc1 [Example 51]
0.659 |  | COc1ccc(-c2ncc(CCC3CCCC3)cc2-c2ccc(C(=O)O)cc2)cc1 [Example 63]
1.82 |  | CCCCc1cnc(-c2ccc(COC)cc2)c(-c2ccc(C(=O)O)cc2)n1 [Example 86]
0.0799 |  | COCCCc1cnc(-c2cc(F)c(OC)c(F)c2)c(-c2ccc(C(=O)O)c(C)c2)n1 [Example 109]
 | 28 | CCCCc1cnc(-c2ccc(O)cc2)c(-c2ccc(C(=O)O)cc2)n1 [Example 33]
0.692 |  | CCCCc1cnc(-c2ccc(OC)c(C#N)c2)c(-c2ccc(C(=O)O)cc2)n1 [Example 17]
0.111 |  | CCCc1cnc(-c2ccc(OC)cc2)c(-c2ccc(C(=O)O)cc2)n1 [Example 37]
0.132 |  | CCCCc1cnc(-c2ccc(OC)cc2)c(-c2ccc(CCC(=O)O)cc2)n1 [Example 71]
0.0569 |  | COCCCCc1cnc(-c2cc(F)c(OC)c(F)c2)c(-c2ccc(C(=O)O)cc2)c1 [Example 129]
 | 9 | CCCCc1cnc(-c2ccc(C(=O)O)cc2)c(-c2ccc(C(=O)O)cc2)n1 [Example 7]
0.0607 |  | CCCCc1cnc(-c2cc(F)c(OC)c(F)c2)c(-c2ccc(C(=O)O)cc2)n1 [Example 21]
0.12 |  | COCCCCc1cnc(-c2ccc(OC)cc2)c(-c2ccc(C(=O)O)cc2)n1 [Example 20]
0.139 |  | CCCOCc1cnc(-c2cc(F)c(OC)c(F)c2)c(-c2ccc(CCC(=O)O)cc2)c1 [Example 146]
0.79 |  | COCCc1cnc(-c2ccc(OC)cc2)c(-c2ccc(C(=O)O)cc2)c1 [Example 102]
0.104 |  | CCOCCc1cnc(-c2ccc(OC)cc2)c(-c2ccc(C(=O)O)cc2)c1 [Example 73]
0.181 |  | CCCCc1cnc(-c2ccc(OC)cc2)c(-c2ccc(C(=O)O)c(Cl)c2)n1 [Example 92]
0.0887 |  | COc1ccc(-c2ncc(CC3CC3)cc2-c2ccc(C(=O)O)cc2)cc1 [Example 96]
0.539 |  | COCCCc1cnc(-c2ccc(OC)cc2)c(-c2ccc(C(=O)O)c(Cl)c2)c1 [Example 120]

IC50 [µM] | inhibition at 10 µM [%] | SMILES
0.0819 |  | CCCCc1cnc(-c2ccc(OC)c(Cl)c2)c(-c2ccc(C(=O)O)cc2)n1 [Example 16]
1.8 |  | CCCCc1cnc(-c2ccc(C3COC3)cc2)c(-c2ccc(C(=O)O)cc2)n1 [Example 89]
0.0659 |  | CCCCc1cnc(-c2ccc(OC)c(F)c2)c(-c2ccc(C(=O)O)cc2)n1 [Example 11]
0.108 |  | CCCOCc1cnc(-c2ccc(OC)cc2)c(-c2ccc(C(=O)O)cc2)c1 [Example 118, 4-(2-(4-methoxyphenyl)-5-(propoxymethyl)pyridin-3-yl)benzoic Acid]
0.265 |  | CCCCc1cnc(-c2ccc(OC)cc2)c(-c2cc(C)c(C(=O)O)c(C)c2)n1 [Example 110]
1.78 |  | CCCCc1cnc(-c2ccc(F)cc2)c(-c2ccc(C(=O)O)cc2)n1 [Example 10]
 | 47 | COc1ccc(-c2ncc(CC3CCCCC3)cc2-c2ccc(C(=O)O)cc2)cc1 [Example 47]
0.501 |  | COCCCc1cnc(-c2cc(F)c(OC)c(F)c2)c(-c2ccc(C(=O)O)c(Cl)c2)n1 [Example 121]
0.0914 |  | CCCCc1cnc(-c2ccc(OC)cc2)c(-c2ccc(C(=O)O)c(F)c2)n1 [Example 14]
0.0826 |  | CCCCc1cnc(-c2ccc(OC)cc2)c(-c2ccc(C(=O)O)c(CC)c2)n1 [Example 111]
0.247 |  | CCCCc1cnc(-c2ccc(OC)cc2)c(-c2ccc(C(=O)O)c(O)c2)n1 [Example 91]
0.543 |  | CCOCCc1cnc(-c2cc(F)c(OC)c(F)c2)c(-c2ccc(C(=O)O)cc2)n1 [Example 117]
0.0497 |  | COCCCCc1cnc(-c2ccc(OC)cc2)c(-c2ccc(C(=O)O)c(C)c2)c1 [Example 126]
1.67 |  | CCCCc1cnc(-c2ccc(OC)cc2)c(-c2ccc(OCC(=O)O)cc2)n1 [Example 70]
1.45 |  | CCCCc1cnc(-c2ccc(OC)cc2)c(-c2ccc(C(=O)O)cc2)c1C [Example 39]
0.0604 |  | CCCCc1cnc(-c2ccc(OC)cc2)c(-c2ccc(C(=O)O)c(C)c2)c1 [Example 114]
0.106 |  | COc1c(F)cc(-c2ncc(CC(C)C)nc2-c2ccc(C(=O)O)c(Cl)c2)cc1F [Example 151]
0.154 |  | CCCCc1cnc(-c2ccc(C(F)(F)F)c(C)c2)c(-c2ccc(C(=O)O)cc2)n1 [Example 26]
0.0627 |  | COCCCc1cnc(-c2cc(F)c(OC)c(F)c2)c(-c2ccc(C(=O)O)cc2)c1 [Example 107]
0.155 |  | COCCCCc1cnc(-c2cc(F)c(OC)c(F)c2)c(-c2ccc(C(=O)O)c(Cl)c2)c1 [Example 131]
